What was measured:
[1] = system: bulrush; assay: Test Example 1: herbicidal efficacy on rice paddy weeds pre-emergence; type: in vivo, Scirpus juncoides; settings: 21 days
[2] = system: false pimpernel; assay: as above; type: in vivo, Lindernia pyxidaria; settings: 21 days
[3] = system: barnyard glass; assay: Test Example 2: herbicidal efficacy on rice paddy weeds post-emergence; type: in vivo, Echinochloa crus-galli; settings: post-emergence, one leaf stage, 21 days after treatment
Summary of the method: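 Plastic pots of 75 cm^2 were filled with clay loam soil and sown with barnyard glass and bulrush seeds, then topped with 75 cm^3 soil containing false pimpernel seeds. The pots were flooded to 5 cm water depth and held in a hot house. Twenty-one days after treatment, herbicidal efficacy was graded against an untreated control.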

[4] = system: bulrush; assay: as above; type: in vivo, Scirpus juncoides; settings: post-emergence, one leaf stage, 21 days after treatment
[5] = system: false pimpernel; assay: as above; type: in vivo, Lindernia pyxidaria; settings: post-emergence, one leaf stage, 21 days after treatment
[6] = system: paddy rice plant (cultivar: Nihonbare); assay: Test Example 3: phytotoxicity test for transplanted paddy rice plant; type: in vivo; settings: transplanted rice, 21 days after treatment
Summary of the method: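 Clay loam soil was placed in a 75 cm^2 plastic pot and flooded to a water depth of 5 cm. Two Nihonbare paddy rice plants at the two-leaf stage were transplanted 1 cm deep and grown in a hot house. After treatment, pots stayed in the hot house for 21 days, and phytotoxicity was then graded against an untreated control.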

[7] = system: bulrush; assay: Test Example 4: low dosage test for rice paddy weeds; type: in vivo, Scirpus juncoides; settings: 300 g/ha as an active ingredient; plants treated at the one leaf stage; 21 days after treatment; vs untreated control
Summary of the method: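 Bulrush sown in clay loam pots, flooded to 5 cm water in a hot house, treated at the one-leaf stage with formulated compound at 300 g/ha. Efficacy scored 0–4 against untreated control 21 days after treatment (4 = 90–100%, 0 = 0% inhibition).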

[8] = system: transplanted paddy rice plant and Bulrush; assay: Test Example 5: selectivity between transplanted paddy rice plant and weeds; type: in vivo; settings: (highest dosage with no phytotoxicity to paddy rice)/(lowest dosage with effective level 4 on Bulrush); rice 3000-100 g/ha, Bulrush 300-10 g/ha; 21 days
Summary of the method: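 Transplanted paddy rice was treated at 3000, 1000, 300 and 100 g/ha active ingredient for phytotoxicity, and post-emergence bulrush at 300, 100, 30 and 10 g/ha. Plants were kept in a hothouse for 21 days. Growth inhibition versus untreated control was scored 0–4 (0%, 1–39%, 40–69%, 70–89%, 90–100%).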

[9] = dosage 1000 g/ha, treated 5 days after transplantation

Row | SMILES | Bulrush pre (herbicidal efficacy grade) ([1]; dosage 1000 g/ha) | False pimpernel pre (herbicidal efficacy grade) ([2]; dosage 1000 g/ha) | Burnyard grass post (herbicidal efficacy grade) ([3]; dosage 1000 g/ha) | Bulrush post (herbicidal efficacy grade) ([4]; dosage 1000 g/ha) | False pimpernel post (herbicidal efficacy grade) ([5]; dosage 1000 g/ha) | Phytotoxicity to paddy rice [6, 9] | Herbicide effect to Bulrush [7] | Selective Index [8] | Bulrush pre (herbicidal efficacy grade) ([1]; dosage 300 g/ha) | False pimpernel pre (herbicidal efficacy grade) ([2]; dosage 300 g/ha) | Burnyard grass post (herbicidal efficacy grade) ([3]; dosage 300 g/ha) | Bulrush post (herbicidal efficacy grade) ([4]; dosage 300 g/ha) | False pimpernel post (herbicidal efficacy grade) ([5]; dosage 300 g/ha) | Phytotoxicity to paddy rice ([6]; dosage 300 g/ha)
1 | COC(=O)N(c1ccccc1CN1CC(C)(C2CC2)OC1=O)S(=O)(=O)C(F)(F)F (racemic) [1-110] | 4 (90%-100% of herbicidal efficacy or phytotoxicity) | 4 (90%-100% of herbicidal efficacy or phytotoxicity) | 4 (90%-100% of herbicidal efficacy or phytotoxicity) | 4 (90%-100% of herbicidal efficacy or phytotoxicity) | 4 (90%-100% of herbicidal efficacy or phytotoxicity) | 2 (40%-69% of herbicidal efficacy or phytotoxicity) | 4 (90%-100% of herbicidal efficacy or phytotoxicity) | ≧30 | – | – | – | – | – | –
2 | COC(=O)N(c1ccccc1CN1CC(C)(C)OC1=O)S(=O)(=O)C(F)(F)F [1-64] | 4 (90%-100% of herbicidal efficacy or phytotoxicity) | 4 (90%-100% of herbicidal efficacy or phytotoxicity) | 4 (90%-100% of herbicidal efficacy or phytotoxicity) | 4 (90%-100% of herbicidal efficacy or phytotoxicity) | 4 (90%-100% of herbicidal efficacy or phytotoxicity) | 2 (40%-69% of herbicidal efficacy or phytotoxicity) | 4 (90%-100% of herbicidal efficacy or phytotoxicity) | ≧30 | – | – | – | – | – | –
3 | CC(C)OC(=O)N(c1ccccc1CN1CC(C)(C2CC2)OC1=O)S(=O)(=O)C(F)(F)F (racemic) [1-118] | 4 (90%-100% of herbicidal efficacy or phytotoxicity) | 4 (90%-100% of herbicidal efficacy or phytotoxicity) | 4 (90%-100% of herbicidal efficacy or phytotoxicity) | 4 (90%-100% of herbicidal efficacy or phytotoxicity) | 4 (90%-100% of herbicidal efficacy or phytotoxicity) | 1 (1%-39% of herbicidal efficacy or phytotoxicity) | 4 (90%-100% of herbicidal efficacy or phytotoxicity) | 30 | – | – | – | – | – | –
4 | CCCCCOC(=O)N(c1ccccc1CN1CC(C)(CC)OC1=O)S(=O)(=O)C(F)(F)F (stereo not drawn) [1-91] | 4 (90%-100% of herbicidal efficacy or phytotoxicity) | 4 (90%-100% of herbicidal efficacy or phytotoxicity) | 4 (90%-100% of herbicidal efficacy or phytotoxicity) | 4 (90%-100% of herbicidal efficacy or phytotoxicity) | 4 (90%-100% of herbicidal efficacy or phytotoxicity) | 3 (70%-89% of herbicidal efficacy or phytotoxicity) | 4 (90%-100% of herbicidal efficacy or phytotoxicity) | 30 | – | – | – | – | – | –
5 | CCCCOC(=O)N(c1ccccc1CN1CC(CC)(CC)OC1=O)S(=O)(=O)C(F)(F)F [1-99] | 4 (90%-100% of herbicidal efficacy or phytotoxicity) | 4 (90%-100% of herbicidal efficacy or phytotoxicity) | 4 (90%-100% of herbicidal efficacy or phytotoxicity) | 4 (90%-100% of herbicidal efficacy or phytotoxicity) | 4 (90%-100% of herbicidal efficacy or phytotoxicity) | 1 (1%-39% of herbicidal efficacy or phytotoxicity) | 4 (90%-100% of herbicidal efficacy or phytotoxicity) | 10 | – | – | – | – | – | –
6 | CCC(C)COC(=O)N(c1ccccc1CN1CC(C)(C)OC1=O)S(=O)(=O)C(F)(F)F (stereo not drawn) [1-67] | 4 (90%-100% of herbicidal efficacy or phytotoxicity) | 4 (90%-100% of herbicidal efficacy or phytotoxicity) | 4 (90%-100% of herbicidal efficacy or phytotoxicity) | 4 (90%-100% of herbicidal efficacy or phytotoxicity) | 4 (90%-100% of herbicidal efficacy or phytotoxicity) | 1 (1%-39% of herbicidal efficacy or phytotoxicity) | 4 (90%-100% of herbicidal efficacy or phytotoxicity) | ≧30 | – | – | – | – | – | –
7 | COC(=O)N(c1ccccc1CN1CC(C)(C(F)(F)F)OC1=O)S(=O)(=O)C(F)(F)F (stereo not drawn) [1-143] | 4 (90%-100% of herbicidal efficacy or phytotoxicity) | 4 (90%-100% of herbicidal efficacy or phytotoxicity) | 4 (90%-100% of herbicidal efficacy or phytotoxicity) | 4 (90%-100% of herbicidal efficacy or phytotoxicity) | 4 (90%-100% of herbicidal efficacy or phytotoxicity) | 1 (1%-39% of herbicidal efficacy or phytotoxicity) | 4 (90%-100% of herbicidal efficacy or phytotoxicity) | 10 | – | – | – | – | – | –
8 | CC1(C)CN(Cc2ccccc2N(C(=O)OCC(Cl)(Cl)Cl)S(=O)(=O)C(F)(F)F)C(=O)O1 [1-65] | 4 (90%-100% of herbicidal efficacy or phytotoxicity) | 4 (90%-100% of herbicidal efficacy or phytotoxicity) | 4 (90%-100% of herbicidal efficacy or phytotoxicity) | 4 (90%-100% of herbicidal efficacy or phytotoxicity) | 4 (90%-100% of herbicidal efficacy or phytotoxicity) | 1 (1%-39% of herbicidal efficacy or phytotoxicity) | 4 (90%-100% of herbicidal efficacy or phytotoxicity) | 10 | – | – | – | – | – | –
9 | CC(C)COC(=O)N(c1ccccc1CN1CCOC1=O)S(=O)(=O)C(F)(F)F [Compound No. 1-2] | 4 (90%-100% of herbicidal efficacy or phytotoxicity) | 4 (90%-100% of herbicidal efficacy or phytotoxicity) | 4 (90%-100% of herbicidal efficacy or phytotoxicity) | 4 (90%-100% of herbicidal efficacy or phytotoxicity) | 4 (90%-100% of herbicidal efficacy or phytotoxicity) | 1 (1%-39% of herbicidal efficacy or phytotoxicity) | 3 (70%-89% of herbicidal efficacy or phytotoxicity) | 3 | – | – | – | – | – | –
10 | CC1CN(Cc2ccccc2NS(=O)(=O)C(F)(F)F)C(=O)O1 (stereo not drawn) [1-17] | 4 (90%-100% of herbicidal efficacy or phytotoxicity) | 4 (90%-100% of herbicidal efficacy or phytotoxicity) | 4 (90%-100% of herbicidal efficacy or phytotoxicity) | 4 (90%-100% of herbicidal efficacy or phytotoxicity) | 4 (90%-100% of herbicidal efficacy or phytotoxicity) | 0 (0% of herbicidal efficacy or phytotoxicity) | 3 (70%-89% of herbicidal efficacy or phytotoxicity) | 10 | – | – | – | – | – | –
11 | COC1N(Cc2ccccc2N(C(=O)OCC(C)C)S(=O)(=O)C(F)(F)F)C(=O)OC1(C)C (stereo not drawn) [Compound No. 1-197, 3-{2-[N-(isobutoxycarbonyl)-N-(trifluoromethanesulfonyl)-amino]benzyl}-4-methoxy-5,5-dimethyloxazolidin-2-one] | – | – | – | – | – | – | 4 (90%-100% of herbicidal efficacy or phytotoxicity) | 10 | 4 (90%-100% of herbicidal efficacy or phytotoxicity) | 3 (70%-89% of herbicidal efficacy or phytotoxicity) | 4 (90%-100% of herbicidal efficacy or phytotoxicity) | 4 (90%-100% of herbicidal efficacy or phytotoxicity) | 1 (1%-39% of herbicidal efficacy or phytotoxicity) | 2 (40%-69% of herbicidal efficacy or phytotoxicity)
12 | CCCCOC(=O)N(c1ccccc1CN1C(=O)OC(C)(C)C1OC)S(=O)(=O)C(F)(F)F (stereo not drawn) [1-196] | 4 (90%-100% of herbicidal efficacy or phytotoxicity) | 4 (90%-100% of herbicidal efficacy or phytotoxicity) | 4 (90%-100% of herbicidal efficacy or phytotoxicity) | 4 (90%-100% of herbicidal efficacy or phytotoxicity) | 4 (90%-100% of herbicidal efficacy or phytotoxicity) | 1 (1%-39% of herbicidal efficacy or phytotoxicity) | 4 (90%-100% of herbicidal efficacy or phytotoxicity) | 10 | – | – | – | – | – | –

— patent US20080274892A1, “Novel Haloalkylsulfonanilide Derivative, Herbicide, and Method of Use Thereof” (priority 2005, published 2008)
